Data as given in patent US4925664A, “Spider toxins and methods for their use as blockers of calcium channels and amino acid receptor function” (priority 1986, dated 1990).

The compounds below were run on transmission between the cochlear nerve afferents and the cochlear nucleus neurons (assay: Blockade of synaptic transmission in chick cochlear nucleus, in vitro chick brain stem preparation (field potential)). Conditions: conventional EAA receptor antagonists and agonists.
Type: cell-based
Procedure: The toxin was bath-applied to cochlear nucleus neurons in an in vitro preparation of chick brain stem.
In order to test the effects of the spider venom, late embryos or hatchling chickens were used in all experiments. Brain stems were removed and maintained in vitro using methods known and described in the art, except that the temperature in the recording chamber was held at 32° C. The tissue was superfused in avian Tyrode solution at about 1 ml per minute.
The field potential evoked by direct electrical stimulation of the cochlear nerve was recorded with a 4M potassium acetate electrode. The short latency component of the field potential reflects the compound action […] of cochlear nerve axons. This afferent volley is followed by a negativity representing the postsynaptic response of NM neurons.

For `N[C@@H](Cn1oc(=O)[nH]c1=O)C(=O)O` [quisqualate], which “concentration required to completely suppress transmission” value (“concentration required” below) is on record?
Its value is “millimolar concentrations”.

How did the “concentration required” value turn out when `O=C(O)[C@H]1CCCN[C@H]1C(=O)O` (relative stereo) [cis-2,3-piperidine dicarboxylic acid] was run?
The value was “millimolar range”.

For `N[C@H](CCC(=O)NCC(=O)O)C(=O)O` [-D-glutamylglycine], which “concentration required” value is on record?
Its value is “millimolar range”.
